Earlier results in patent publication US7960544B2, “Useful indole compounds” (Ironwood Pharmaceuticals, Inc., priority 2005, dated 2011).

Key:
[1] = system: MCF-7 cells; conditions: up to 100 μM
[2] = system: prostaglandin synthesis
[3] = molecular target: DAO (Homo sapiens, UniProt P14920)
[4] = system: CCR3; conditions: cross-desensitization

Chain of DAO (P14920 whole entry): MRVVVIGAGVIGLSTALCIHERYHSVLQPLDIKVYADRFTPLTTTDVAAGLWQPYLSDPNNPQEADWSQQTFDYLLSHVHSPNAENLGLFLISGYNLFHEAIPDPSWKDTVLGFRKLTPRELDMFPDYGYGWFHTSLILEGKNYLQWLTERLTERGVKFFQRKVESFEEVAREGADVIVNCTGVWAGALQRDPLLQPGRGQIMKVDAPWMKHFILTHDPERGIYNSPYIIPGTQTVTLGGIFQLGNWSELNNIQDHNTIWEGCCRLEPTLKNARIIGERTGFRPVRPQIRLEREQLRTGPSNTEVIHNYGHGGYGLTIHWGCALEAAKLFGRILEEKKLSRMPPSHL

Structure (SMILES): CCCCC/C=C\C/C=C\C/C=C\C/C=C\CCCC(=O)NCCO [anandamide]
- cell viability (as assessed by trypan blue) [1]: No significant decrease in cell viability

Structure (SMILES): Cc1c(CC(=O)O)c2cc(O)ccc2n1C(=O)c1ccc(Cl)cc1 [desmethyl metabolite, (1-(4-chlorobenzoyl)-5-hydroxy-2-methyl-1H-indol-3-yl]acetic acid]
- ability to inhibit prostaglandin synthesis [2]: has some ability to inhibit prostaglandin synthesis

Structure (SMILES): COc1ccc2c(c1)c(CC(=O)O)c(C)n2C(=O)c1ccc(Cl)cc1 [indomethacin]
- inhibition of DAO [3]: inhibitor of DAO
- expression of CCR3, the receptor for eotaxin [4]: reduces expression of CCR3
